These are literature values, as cited in US7030077B2, “Detergent compositions” (Unilever Home and Personal Care USA, a division of Conopco, …, priority 2002, dated 2006).

Where two headings read alike, the source gives them in different places. Where only a bound is given, the exact number is not on record here.

[1] abbreviates: other common materials, by contrast, at 20° C.

As for `O=P(O)(O)OP(=O)(O)OP(=O)(O)O` [Sodium tripolyphosphate anhydrous], the “Water Solubility (g/100 g)” value under setting [1] is on record as 15 g/100 g.
Take `O=BO[O-].[Na+]` [Sodium perborate anhydrous]: under setting [1], the “Water Solubility (g/100 g)” value was 3.7 g/100 g.
On to `NC(N)=O` [Urea], for which the “Water Solubility (g/100 g)” value (highly water-soluble materials, grams of solid to form a saturated solution in 100 g of deionised water at 20° C.) was above 100 g/100 g.
